Assay results as given in patent US12129246B1, “Hydroquinazoline derivatives for the treatment of a disease or disorder” (Novartis AG, priority 2023, dated 2024).
Read-outs that look alike come from different tables or passages of the source.

How the values were obtained:
human NPR1 = biological target: T1, human NPR1 (Homo sapiens, UniProt P16066); assay: Cellular cGMP production assay, human NPR1 expressing CHO-K1 cells (CisBio HTRF); type: cell-based; conditions: for AC50: cGMP production, 30 min at 37° C., 12-point dose-response from 30 μM; for Human NPR1 Amax (% of ANP): maximum cGMP production as percentage of the maximum cGMP produced with ANP
T1 construct: host or cells: CHO-K1
T1 sequence (P16066 33-1061): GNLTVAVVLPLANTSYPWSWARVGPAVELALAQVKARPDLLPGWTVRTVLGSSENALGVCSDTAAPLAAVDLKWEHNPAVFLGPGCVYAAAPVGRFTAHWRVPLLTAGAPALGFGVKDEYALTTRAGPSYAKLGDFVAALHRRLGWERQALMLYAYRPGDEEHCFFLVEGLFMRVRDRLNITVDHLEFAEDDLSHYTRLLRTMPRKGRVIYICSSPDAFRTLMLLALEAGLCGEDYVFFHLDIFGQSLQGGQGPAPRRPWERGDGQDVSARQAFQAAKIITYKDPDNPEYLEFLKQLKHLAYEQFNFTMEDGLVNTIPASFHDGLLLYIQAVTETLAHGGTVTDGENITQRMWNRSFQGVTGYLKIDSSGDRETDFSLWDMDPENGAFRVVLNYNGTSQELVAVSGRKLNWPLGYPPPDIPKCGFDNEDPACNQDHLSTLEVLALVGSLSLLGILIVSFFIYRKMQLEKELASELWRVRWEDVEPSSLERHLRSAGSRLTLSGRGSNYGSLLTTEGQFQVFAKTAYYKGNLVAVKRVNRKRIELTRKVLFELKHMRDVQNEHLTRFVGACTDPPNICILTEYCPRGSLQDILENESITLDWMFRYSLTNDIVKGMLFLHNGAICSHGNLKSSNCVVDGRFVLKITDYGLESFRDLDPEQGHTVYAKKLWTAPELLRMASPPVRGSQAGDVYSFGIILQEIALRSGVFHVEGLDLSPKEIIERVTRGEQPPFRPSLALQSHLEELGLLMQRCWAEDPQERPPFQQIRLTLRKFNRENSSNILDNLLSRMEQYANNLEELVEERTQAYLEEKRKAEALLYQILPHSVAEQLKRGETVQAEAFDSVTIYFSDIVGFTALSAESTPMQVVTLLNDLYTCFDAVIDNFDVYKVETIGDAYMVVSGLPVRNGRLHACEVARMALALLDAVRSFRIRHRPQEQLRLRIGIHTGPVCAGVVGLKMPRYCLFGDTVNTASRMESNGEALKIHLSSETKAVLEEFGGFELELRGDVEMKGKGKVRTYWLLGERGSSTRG
In short: (§1)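 Cells receive IBMX (1 mM) assay buffer plus test compound over twelve threefold dilutions starting at 30 μM, and cGMP accumulates for 30 min at 37 °C. Lysates are then incubated one hour at room temperature with d2-labelled cGMP and cryptate-labelled antibody before time-resolved fluorescence reading.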

monkey NPR1 = monkey NPR1 (Macaca fascicularis, UniProt A0A7N9DBT9); assay: Cellular cGMP production assay, monkey NPR1 expressing CHO-K1 cells (CisBio HTRF); type: cell-based; conditions: for Monkey NPR1 Amax (% of ANP): maximum cGMP production as percentage of the maximum cGMP produced with ANP
In short: as §1

[1] = cGMP production, monkey NPR1 CHO-K1 cells, 30 min at 37° C., 12-point dose-response from 30 μM, read-out: Monkey NPR1 AC50

monkey NPR1, sequence (A0A7N9DBT9 entry or part of it): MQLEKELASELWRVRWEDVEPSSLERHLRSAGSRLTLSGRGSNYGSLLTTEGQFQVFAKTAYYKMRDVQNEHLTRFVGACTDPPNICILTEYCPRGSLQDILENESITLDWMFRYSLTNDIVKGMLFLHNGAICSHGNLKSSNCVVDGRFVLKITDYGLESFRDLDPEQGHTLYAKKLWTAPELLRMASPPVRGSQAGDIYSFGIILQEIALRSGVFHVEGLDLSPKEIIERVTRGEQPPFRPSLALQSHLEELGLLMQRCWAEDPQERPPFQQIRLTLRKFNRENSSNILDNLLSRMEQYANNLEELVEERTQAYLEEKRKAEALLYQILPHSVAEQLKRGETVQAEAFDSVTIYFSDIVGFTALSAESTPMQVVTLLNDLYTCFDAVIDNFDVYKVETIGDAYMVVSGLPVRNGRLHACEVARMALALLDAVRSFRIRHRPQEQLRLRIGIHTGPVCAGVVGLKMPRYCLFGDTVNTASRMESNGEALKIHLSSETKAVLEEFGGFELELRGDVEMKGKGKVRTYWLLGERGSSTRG

With `CC[C@@H](Nc1nc2c(c(N[C@@H](CN3C4CCCC3CCC4)c3cnn(C)c3)n1)C[C@H](c1ccccc1)CC2)[C@H]1CC[C@H](C(=O)O)CC1` [Compound 59, (1R,4r)-4-((R)-1-(((R)-4-(((R)-2-((1S,5S)-9-azabicyclo[3.3.1]nonan-9-yl)-1-(1-methyl-1H-pyrazol-4-yl)ethyl)amino)-6-phenyl-5,6,7,8-tetrahydroquinazolin-2-yl)amino)propyl)cyclohexane-1-carboxylic acid] the AC50 (human NPR1) was 205 nM, the “Human NPR1 Amax (% of ANP)” value (human NPR1) was 99.614 % of ANP and the AC50 (monkey NPR1) was 153 nM. For the same molecule, the “Monkey NPR1 Amax (% of ANP)” value (monkey NPR1; monkey NPR1 CHO-K1 cells) was 104.401 % of ANP.
In the case of `CC[C@@H](Nc1nc2c(c(N[C@@H](CN3CCCC[C@@H]3C)c3cnn(C)c3)n1)C[C@H](c1ccccc1)CC2)[C@H]1CC[C@H](C(=O)O)CC1` [Compound 123, (1R,4r)-4-((R)-1-(((R)-4-(((R)-1-(1-methyl-1H-pyrazol-4-yl)-2-((S)-2-methylpiperidin-1-yl)ethyl)amino)-6-phenyl-5,6,7,8-tetrahydroquinazolin-2-yl)amino)propyl)cyclohexane-1-carboxylic acid], the AC50 (human NPR1) is reported as 592 nM, the “Human NPR1 Amax (% of ANP)” value (human NPR1) is reported as 103.006 % of ANP and the AC50 (monkey NPR1; [1]) is reported as 377 nM. For the same molecule, the “Monkey NPR1 Amax (% of ANP)” value (monkey NPR1; monkey NPR1 CHO-K1 cells) was 102.761 % of ANP.
With `CC[C@@H](Nc1nc2c(c(N[C@@H](CN3CCCCC3)c3cnn(CC)c3)n1)C[C@H](c1cccc(F)c1)CC2)[C@H]1CC[C@H](C(=O)O)CC1` [Compound 30, (1R,4r)-4-((R)-1-(((R)-4-(((R)-1-(1-ethyl-1H-pyrazol-4-yl)-2-(piperidin-1-yl)ethyl)amino)-6-(3-fluorophenyl)-5,6,7,8-tetrahydroquinazolin-2-yl)amino)propyl)cyclohexane-1-carboxylic acid] the AC50 (human NPR1) was 140 nM, the “Human NPR1 Amax (% of ANP)” value (human NPR1) was 99.863 % of ANP and the AC50 (monkey NPR1; [1]) was 77 nM. For the same molecule, the “Monkey NPR1 Amax (% of ANP)” value (monkey NPR1; monkey NPR1 CHO-K1 cells) was 99.091 % of ANP.
In the case of `CC[C@H]([C@H]1CC[C@H](C(=O)O)CC1)N(C)c1nc2c(c(N[C@@H](CN3CC4CCC3C4)c3ccccc3)n1)C[C@H](c1ccccc1)CC2` (stereo partly drawn) [Compound 136, (1R,4r)-4-((1R)-1-(((6R)-4-(((1R)-2-(2-azabicyclo[2.2.1]heptan-2-yl)-1-phenylethyl)amino)-6-phenyl-5,6,7,8-tetrahydroquinazolin-2-yl)(methyl)amino)propyl)cyclohexane-1-carboxylic acid], the AC50 (human NPR1) is reported as 812 nM, the “Human NPR1 Amax (% of ANP)” value (human NPR1) is reported as 103.913 % of ANP and the AC50 (monkey NPR1; [1]) is reported as 516 nM. The “Monkey NPR1 Amax (% of ANP)” value (monkey NPR1; monkey NPR1 CHO-K1 cells) was 96.754 % of ANP.
For `CC[C@H]([C@H]1CC[C@H](C(=O)O)CC1)N(C)c1nc2c(c(N[C@@H](CN3CCC[C@H](CF)C3)c3cnn(C)c3)n1)C[C@H](c1ccccc1)CC2` [Compound 87, (1R,4r)-4-((R)-1-(((R)-4-(((R)-2-((S)-3-(fluoromethyl)piperidin-1-yl)-1-(1-methyl-1H-pyrazol-4-yl)ethyl)amino)-6-phenyl-5,6,7,8-tetrahydroquinazolin-2-yl)(methyl)amino)propyl)cyclohexane-1-carboxylic acid], the AC50 (human NPR1) was 292 nM, the “Human NPR1 Amax (% of ANP)” value (human NPR1) was 93.715 % of ANP and the AC50 (monkey NPR1; [1]) was 235 nM. The “Monkey NPR1 Amax (% of ANP)” value (monkey NPR1; monkey NPR1 CHO-K1 cells) was 100.104 % of ANP.
For `CC[C@@H](Nc1nc2c(c(N[C@@H](CN3CC4CCC3C4)c3cnn(C)c3)n1)C[C@H](c1ccccc1)CC2)[C@H]1CC[C@H](C(=O)O)CC1` (stereo partly drawn) [Compound 58, (1R,4r)-4-((1R)-1-(((6R)-4-(((1R)-2-(2-azabicyclo[2.2.1]heptan-2-yl)-1-(1-methyl-1H-pyrazol-4-yl)ethyl)amino)-6-phenyl-5,6,7,8-tetrahydroquinazolin-2-yl)amino)propyl)cyclohexane-1-carboxylic acid], the AC50 (human NPR1) was 201 nM, the “Human NPR1 Amax (% of ANP)” value (human NPR1) was 99.715 % of ANP and the AC50 (monkey NPR1; [1]) was 149 nM. For the same molecule, the “Monkey NPR1 Amax (% of ANP)” value (monkey NPR1; monkey NPR1 CHO-K1 cells) was 95.422 % of ANP.
With `CC[C@H]([C@H]1CC[C@H](C(=O)O)CC1)N(C)c1nc2c(c(N[C@@H](CN3CCC4CC4C3)c3cnn(C)c3)n1)C[C@H](c1ccccc1)CC2` (stereo partly drawn) [Compound 78, (1R,4r)-4-((1R)-1-(((6R)-4-(((1R)-2-(3-azabicyclo[4.1.0]heptan-3-yl)-1-(1-methyl-1H-pyrazol-4-yl)ethyl)amino)-6-phenyl-5,6,7,8-tetrahydroquinazolin-2-yl)(methyl)amino)propyl)cyclohexane-1-carboxylic acid] the AC50 (human NPR1) was 254 nM, the “Human NPR1 Amax (% of ANP)” value (human NPR1) was 99.406 % of ANP and the AC50 (monkey NPR1; [1]) was 212 nM. The “Monkey NPR1 Amax (% of ANP)” value (monkey NPR1; monkey NPR1 CHO-K1 cells) was 102.158 % of ANP.
With `CC[C@H]([C@H]1CC[C@H](C(=O)O)CC1)N(C)c1nc2c(c(N[C@@H](CN3CCC[C@H](C)C3)c3cnn(C)c3)n1)C[C@@H](c1cccc(F)c1)CC2` [Compound 75, (1R,4r)-4-((R)-1-(((S)-6-(3-fluorophenyl)-4-(((R)-1-(1-methyl-1H-pyrazol-4-yl)-2-((S)-3-methylpiperidin-1-yl)ethyl)amino)-5,6,7,8-tetrahydroquinazolin-2-yl)(methyl)amino)propyl)cyclohexane-1-carboxylic acid] the AC50 (human NPR1) was 247 nM, the “Human NPR1 Amax (% of ANP)” value (human NPR1) was 93.803 % of ANP and the AC50 (monkey NPR1) was 162 nM. The “Monkey NPR1 Amax (% of ANP)” value (monkey NPR1; monkey NPR1 CHO-K1 cells) was 102.588 % of ANP.
With `CC[C@@H](Nc1nc2c(c(N[C@@H](CN3CCCCC3)c3cnn(C)c3)n1)C[C@H](c1ccccc1)CC2)[C@H]1CC[C@H](C(=O)O)CC1` [Compound 56, (1R,4r)-4-((R)-1-(((R)-4-(((R)-1-(1-methyl-1H-pyrazol-4-yl)-2-(piperidin-1-yl)ethyl)amino)-6-phenyl-5,6,7,8-tetrahydroquinazolin-2-yl)amino)propyl)cyclohexane-1-carboxylic acid] the AC50 (human NPR1) was 198 nM, the “Human NPR1 Amax (% of ANP)” value (human NPR1) was 102.955 % of ANP and the AC50 (monkey NPR1; [1]) was 196 nM. For the same molecule, the “Monkey NPR1 Amax (% of ANP)” value (monkey NPR1; monkey NPR1 CHO-K1 cells) was 108.953 % of ANP.
In the case of `CC[C@H]([C@H]1CC[C@H](C(=O)O)CC1)N(C)c1nc2c(c(N[C@@H](CN3C4CCC3CC4)c3cnn(C)c3)n1)C[C@H](c1ccc(F)cc1)CC2` [Compound 63, (1R,4r)-4-((R)-1-(((R)-4-(((R)-2-(7-azabicyclo[2.2.1]heptan-7-yl)-1-(1-methyl-1H-pyrazol-4-yl)ethyl)amino)-6-(4-fluorophenyl)-5,6,7,8-tetrahydroquinazolin-2-yl)(methyl)amino)propyl)cyclohexane-1-carboxylic acid], the AC50 (human NPR1) is reported as 210 nM, the “Human NPR1 Amax (% of ANP)” value (human NPR1) is reported as 100.629 % of ANP and the AC50 (monkey NPR1) is reported as 196 nM. The “Monkey NPR1 Amax (% of ANP)” value (monkey NPR1; monkey NPR1 CHO-K1 cells) was 99.684 % of ANP.
In the case of `CC[C@H]([C@H]1CC[C@H](C(=O)O)CC1)N(C)c1nc2c(c(N[C@@H](CN3CCC[C@H](C)C3)c3cnn(C)c3)n1)CN(c1ccccc1F)CC2` [Compound 106, (1R,4r)-4-((R)-1-((6-(2-fluorophenyl)-4-(((R)-1-(1-methyl-1H-pyrazol-4-yl)-2-((S)-3-methylpiperidin-1-yl)ethyl)amino)-5,6,7,8-tetrahydropyrido[4,3-d]pyrimidin-2-yl)(methyl)amino)propyl)cyclohexane-1-carboxylic acid], the AC50 (human NPR1) is reported as 399 nM, the “Human NPR1 Amax (% of ANP)” value (human NPR1) is reported as 100.198 % of ANP and the AC50 (monkey NPR1; [1]) is reported as 254 nM. For the same molecule, the “Monkey NPR1 Amax (% of ANP)” value (monkey NPR1; monkey NPR1 CHO-K1 cells) was 104.076 % of ANP.
In the case of `CC[C@H]([C@H]1CC[C@H](C(=O)O)CC1)N(C)c1nc2c(c(N[C@@H](CN3C4CCCC3CC4)c3cn(C)nc3C)n1)C[C@H](c1cccc(F)c1)CC2` [Compound 102, (1R,4r)-4-((1R)-1-(((6R)-4-(((1R)-2-(8-azabicyclo[3.2.1]octan-8-yl)-1-(1,3-dimethyl-1H-pyrazol-4-yl)ethyl)amino)-6-(3-fluorophenyl)-5,6,7,8-tetrahydroquinazolin-2-yl)(methyl)amino)propyl)cyclohexane-1-carboxylic acid], the AC50 (human NPR1) is reported as 382 nM, the “Human NPR1 Amax (% of ANP)” value (human NPR1) is reported as 96.769 % of ANP and the AC50 (monkey NPR1) is reported as 279 nM. For the same molecule, the “Monkey NPR1 Amax (% of ANP)” value (monkey NPR1; monkey NPR1 CHO-K1 cells) was 107.819 % of ANP.
`CC[C@@H]([C@H]1CC[C@@](F)(C(=O)O)CC1)N(C)c1nc2c(c(N[C@H](CN3CCC[C@@H](C)C3)c3cnn(C)c3)n1)C[C@@H](c1ccccc1)CC2` [Compound 21, (1S,4r)-1-fluoro-4-((S)-1-(methyl((S)-4-(((S)-1-(1-methyl-1H-pyrazol-4-yl)-2-((R)-3-methylpiperidin-1-yl)ethyl)amino)-6-phenyl-5,6,7,8-tetrahydroquinazolin-2-yl)amino)propyl)cyclohexane-1-carboxylic acid] was tested, and the AC50 (human NPR1) was 111 nM, the “Human NPR1 Amax (% of ANP)” value (human NPR1) was 96.122 % of ANP and the AC50 (monkey NPR1; [1]) was 93 nM. For the same molecule, the “Monkey NPR1 Amax (% of ANP)” value (monkey NPR1; monkey NPR1 CHO-K1 cells) was 101.974 % of ANP.
